For this test, the target named is SARS2 protease (Severe acute respiratory syndrome coronavirus 2, UniProt P0DTD1). The test is described as follows: SARS-CoV-2 protease inhibition assay (SARS2 FRET protease assay). It counts as biochemical. The conditions noted are these: SARS-CoV-2 protease 25 nM, FRET, peptide substrate 1.3 μM, 30 minutes at 30° C., compounds 20 μM to 1.0 nM; read-out: IC50.

Turning to `CC(C)C[C@H](NC(=O)OC(Cc1cccc(Cl)c1)c1ccccc1)C(=O)N[C@@H](C[C@@H]1CCNC1=O)C(O)S(=O)(=O)O` (stereo partly drawn) [Compound C114, Sodium (2S)-2-((2S)-2-(((2-(3-chlorophenyl)-1-phenylethoxy)carbonyl)amino)-4-methylpentanamido)-1-hydroxy-3-((S)-2-oxopyrrolidin-3-yl) propane-1-sulfonate], the IC50 turned out to be 11.1 nM.
In the case of `CC(C)C[C@H](NC(=O)OC(Cc1cccc(Cl)c1)c1ccccc1)C(=O)N[C@@H](C[C@@H]1CCNC1=O)C(=O)C(=O)NC1CC1` (stereo partly drawn) [Compound C147, 2-(3-Chlorophenyl)-1-phenylethyl ((S)-1-(((S)-4-(cyclopropylamino)-3,4-dioxo-1-((S)-2-oxopyrrolidin-3-yl)butan-2-yl)amino)-4-methyl-1-oxopentan-2-yl) carbamate] it was 3000 nM.
Consider `CC(C)(c1cccc(Cl)c1)C(OC(=O)N[C@@H](CC1CCCCC1)C(=O)N[C@H](C=O)C[C@@H]1CCNC1=O)c1cccc(F)c1` (stereo partly drawn) [Compound C105, 2-(3-Chlorophenyl)-1-(3-fluorophenyl)-2-methylpropyl ((S)-3-cyclohexyl-1-oxo-1-(((S)-1-oxo-3-((S)-2-oxopyrrolidin-3-yl)propan-2-yl)amino)propan-2-yl)carbamate], for which the concentration for half-maximal inhibition (IC50) is 0.6 nM.
As for `CC(C)C[C@H](NC(=O)OC1CCN(C(=O)OC(C)(C)C)CC1)C(=O)N[C@H](C=O)C[C@@H]1CCNC1=O` [Compound C34, Tert-butyl 4-((((S)-4-methyl-1-oxo-1-(((S)-1-oxo-3-((S)-2-oxopyrrolidin-3-yl)propan-2-yl)amino)pentan-2-yl)carbamoyl)oxy) piperidine-1-carboxylate], the IC50 worked out at 100 nM.
Next, `CC(C)C[C@H](NC(=O)OC(Cc1ccccc1)c1ccccc1)C(=O)N[C@@H](C[C@@H]1CCNC1=O)C(=O)C(=O)NCc1ccccn1` (stereo partly drawn) [Compound C68, 1,2-Diphenylethyl ((S)-1-(((S)-3,4-dioxo-1-((S)-2-oxopyrrolidin-3-yl)-4-((pyridin-2-ylmethyl)amino)butan-2-yl)amino)-4-methyl-1-oxopentan-2-yl)carbamate]: 2100 nM; `CCOP(=O)(OCC)C(O)[C@H](CCC(=O)N(C)C)NC(=O)C(CC(C)(C)C)NC(=O)OCc1cccc(Cl)c1` (stereo partly drawn) [Compound C2, 3-Chlorobenzyl (1-(((2S)-1-(diethoxyphosphoryl)-5-(dimethylamino)-1-hydroxy-5-oxopentan-2-yl)amino)-4,4-dimethyl-1-oxopentan-2-yl)carbamate]: 71000 nM.
Next, `O=C(N[C@@H](CC1CCCCC1)C(=O)NC(CC1CC2(CCOCC2)NC1=O)C(=O)C(=O)NC1CC1)OC1CCCC1Cc1cccc(Cl)c1` (stereo partly drawn) [Compound C206, 2-(3-Chlorobenzyl)cyclopentyl ((2S)-3-cyclohexyl-1-((4-(cyclopropylamino)-3,4-dioxo-1-(2-oxo-8-oxa-1-azaspiro[4.5]decan-3-yl)butan-2-yl)amino)-1-oxopropan-2-yl)carbamate]: 5110 nM.
`O=CC(CC1CC2(CCCCC2)NC1=O)NC(=O)[C@H](CC1CCCCC1)NC(=O)OC1CCCC1Cc1cccc(Cl)c1` (stereo partly drawn) [Compound C223, 2-(3-Chlorobenzyl)cyclopentyl ((2S)-3-cyclohexyl-1-oxo-1-((1-oxo-3-(2-oxo-1-azaspiro[4.5]decan-3-yl)propan-2-yl)amino)propan-2-yl)carbamate]: the IC50 was 781 nM.
In the case of `COc1cccc2[nH]c(C(=O)N[C@@H](CC(C)C)C(=O)NC(C=O)CC3CC4(CCCCC4)NC3=O)cc12` (stereo partly drawn) [Compound C214, 4-Methoxy-N-((2S)-4-methyl-1-oxo-1-((1-oxo-3-(2-oxo-1-azaspiro[4.5]decan-3-yl)propan-2-yl)amino)pentan-2-yl)-1H-indole-2-carboxamide] it was 11 nM.
Next, `CC(=O)N1CCC2(CC1)CC(CC(NC(=O)C(Cc1ccccc1)NC(=O)c1cnc3ccccc3n1)C(=O)C(N)=O)C(=O)N2` (stereo in doubt) [Compound C130, N-((2S)-1-((1-(8-acetyl-2-oxo-1,8-diazaspiro[4.5]decan-3-yl)-4-amino-3,4-dioxobutan-2-yl)amino)-1-oxo-3-phenylpropan-2-yl)quinoxaline-2-carboxamide]: greater than 20000 nM; `CC(C)C[C@H](NC(=O)OC1CCN(C(=O)OC(C)(C)C)c2ccccc21)C(=O)N[C@H](C=O)C[C@@H]1CCNC1=O` (stereo partly drawn) [Compound C59, Tert-butyl 4-((((S)-4-methyl-1-oxo-1-(((S)-1-oxo-3-((S)-2-oxopyrrolidin-3-yl)propan-2-yl)amino)pentan-2-yl)carbamoyl)oxy)-3,4-dihydroquinoline-1(2H)-carboxylate]: 100 nM; `O=C(N[C@@H](CC1CCCCC1)C(=O)N[C@@H](C[C@@H]1CCNC1=O)C(=O)C(=O)NC1CC1)OC(Cc1cccc(Cl)c1)c1ccccc1` (stereo partly shown) [Compound C158]: 2610 nM.
Next, `CC(C)C[C@H](NC(=O)OC1CCCC1Cc1ccccc1)C(=O)N[C@H](C=O)C[C@@H]1CCNC1=O` (stereo partly drawn) [Compound C43, 2-benzylcyclopentyl ((S)-4-methyl-1-oxo-1-(((S)-1-oxo-3-((S)-2-oxopyrrolidin-3-yl)propan-2-yl)amino)pentan-2-yl) carbamate]: 56 nM; `CC(C)C[C@H](NC(=O)O[C@@H](c1cccc(F)c1)C(C)(C)c1cccc(Cl)c1)C(=O)N[C@@H](C[C@@H]1CCNC1=O)C(=O)C(=O)NC1CC1` [Compound C285]: 80 nM.
With `CC(C)C[C@H](NC(=O)OC1(Cc2cccc(Cl)c2)CCC1)C(=O)NC(C=O)CC1CC2(CCOCC2)NC1=O` (stereo partly shown) [Compound C204], the IC50 stood at 224 nM.
For `Cc1cccc(C(OC(=O)N[C@@H](CC2CCCCC2)C(=O)N[C@@H](C[C@@H]2CCNC2=O)C(=O)C(N)=O)C(C)(C)c2cccc(Cl)c2)c1` (stereo partly drawn) [Compound C124, 2-(3-chlorophenyl)-2-methyl-1-(m-tolyl)propyl ((S)-1-(((S)-4-amino-3,4-dioxo-1-((S)-2-oxopyrrolidin-3-yl)butan-2-yl)amino)-3-cyclohexyl-1-oxopropan-2-yl) carbamate], the IC50 worked out at 324 nM.
Consider `CC(C)(c1cccc(Cl)c1)C(OC(=O)N[C@@H](CC1CCCCC1)C(=O)N[C@@H](C[C@@H]1CCNC1=O)C(=O)C(N)=O)c1cccc(F)c1` (stereo partly drawn) [Compound C120, 2-(3-Chlorophenyl)-1-(3-fluorophenyl)-2-methylpropyl ((S)-1-(((S)-4-amino-3,4-dioxo-1-((S)-2-oxopyrrolidin-3-yl)butan-2-yl)amino)-3-cyclohexyl-1-oxopropan-2-yl) carbamate], for which the IC50 turned out to be 1060 nM.
`CC(C)C[C@H](NC(=O)OC1CCCC1Cc1ccccc1)C(=O)NC(C[C@@H]1CCNC1=O)C(=O)C(=O)NC1CC1` (stereo in doubt) [Compound C89, 2-Benzylcyclopentyl ((S)-1-(((R)-4-(cyclopropylamino)-3,4-dioxo-1-((S)-2-oxopyrrolidin-3-yl)butan-2-yl)amino)-4-methyl-1-oxopentan-2-yl)carbamate]: the IC50 came to 300 nM.
In the case of `CC(C)C[C@H](NC(=O)OC(c1ccc(Cl)cc1)C(C)(C)c1cccc(Cl)c1)C(=O)N[C@@H](C[C@@H]1CCNC1=O)C(=O)C(=O)NC1CC1` (stereo partly drawn) [Compound C226, 2-(3-chlorophenyl)-1-(4-chlorophenyl)-2-methylpropyl ((S)-1-(((S)-4-(cyclopropylamino)-3,4-dioxo-1-((S)-2-oxopyrrolidin-3-yl)butan-2-yl)amino)-4-methyl-1-oxopentan-2-yl)carbamate] it was 57 nM; in that of `CC1(C)CC(CC(NC(=O)[C@H](CC2CCCCC2)NC(=O)OC(c2cccc(Cl)c2)C(C)(C)c2cccc(Cl)c2)C(=O)C(=O)NC2CC2)C(=O)N1` (stereo partly shown) [Compound C281], 2480 nM; in that of `CC(C)C[C@H](NC(=O)OCC(C)(C)c1cccc(Cl)c1)C(=O)N[C@@H](C[C@@H]1CCNC1=O)C(O)S(=O)(=O)O` (stereo partly drawn) [Compound C72, Sodium (2S)-2-((S)-2-(((2-(3-chlorophenyl)-2-methylpropoxy)carbonyl)amino)-4-methylpentanamido)-1-hydroxy-3-((S)-2-oxopyrrolidin-3-yl)propane-1-sulfonate], 10 nM.
Take `COc1cccc2[nH]c(C(=O)N[C@@H](CC(C)C)C(=O)NC(CC3CC4(CCCCC4)NC3=O)C(=O)C(=O)NC3CC3)cc12` (stereo partly drawn) [Compound C234, N-((2S)-1-((4-(cyclopropylamino)-3,4-dioxo-1-(2-oxo-1-azaspiro[4.5]decan-3-yl)butan-2-yl)amino)-4-methyl-1-oxopentan-2-yl)-4-methoxy-1H-indole-2-carboxamide]: the IC50 stood at 0.8 nM.
Next, `CCOP(=O)(OCC)C(O)[C@H](CCC(=O)N(C)C1(Cc2ccccc2)CC1)NC(=O)[C@H](CC1CCCCC1)NC(=O)OCc1cccc(Cl)c1` (stereo partly drawn) [Compound C5, 3-Chlorobenzyl ((2S)-1-(((2S)-5-((1-benzylcyclopropyl)(methyl)amino)-1-(diethoxyphosphoryl)-1-hydroxy-5-oxopentan-2-yl)amino)-3-cyclohexyl-1-oxopropan-2-yl)carbamate]: greater than 200000 nM.
As to `CC(C)C[C@H](NC(=O)OC(CCc1ccccc1)c1ccccc1)C(=O)N[C@H](C=O)C[C@@H]1CCNC1=O` (stereo partly shown) [Compound C259], the IC50 is 50 nM.
For `CC1(C)CC(CC(NC(=O)[C@H](CC2CCCCC2)NC(=O)OC(c2cccc(F)c2)C(C)(C)c2cccc(Cl)c2)C(=O)C(N)=O)C(=O)N1` (stereo partly drawn) [Compound C220, 2-(3-Chlorophenyl)-1-(3-fluorophenyl)-2-methylpropyl ((2S)-1-((4-amino-1-(5,5-dimethyl-2-oxopyrrolidin-3-yl)-3,4-dioxobutan-2-yl)amino)-3-cyclohexyl-1-oxopropan-2-yl)carbamate], the IC50 was determined as 1830 nM.

(Values after patent US20230159453A1 (COCRYSTAL PHARMA, INC., priority 2020, published 2023).)
